The source of these data is the supplement of paper PMC11208160.

This data set in a line: recombinant UMI read abundance after kanamycin selection (control-corrected) (log10(CPM+1)); higher = more efficient recombination; extreme values may be limits of the assay; sequences stand for … in AGTGCAGAGAAAATCGGCCAGTTTTCTCTGCCTGCAGTCCGCATGCCGTGGGACCCCTTGGGTTCTAACCTGTTGCCTAGATTTATGCAGCGGACTGCCTTTCTCCCAAAGTGATAAACCGG…AGGTTGGTTTCACT; site = the 11-nt donor. A digest of the protocol:
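Values, expressed as log10(CPM+1), derive from recombinant UMI counts converted to CPM, averaged across replicates and scaled by control-derived factors. Plating was with IPTG (0.07 mM) plus kanamycin or unselected, two replicates each. The screen pooled donor and donor-binding-loop pairs for the IS621 bridge recombinase in Escherichia coli.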
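Note: IS621 bridge recombinase in Escherichia coli cells against a fixed T5 target plasmid.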

Turning to “TGCTTAGCATGGACCGGTTTTCCCGGTAATCCGTATTTGTC (site TGCTTAGCTGA)”, the “recombinant UMI read abundance (log10)” value was found to be 0.

For “TGCTTGACATGGACCGGTTTTCCCGGTAATCCGTATTTGCT (site TACTTGACTAG)”, the “recombinant UMI read abundance (log10)” value was 1.51.

As to “TGCTTGACATGGACCGGTTTTCCCGGTAATCCGTATTTGCT (site TCCTTGACTAG)”, the “recombinant UMI read abundance (log10)” value stood at 0.0059.

“TGCTTGACATGGACCGGTTTTCCCGGTAATCCGTATTTGCT (site TGCTTGACTAG)”: the “recombinant UMI read abundance (log10)” value was 0.922.

On to “TGCTTGACATGGACCGGTTTTCCCGGTAATCCGTATTTGCT (site TTCTTGACTAG)”, for which the “recombinant UMI read abundance (log10)” value is 0.00367.

“TGCTTGACATGGACCGGTTTTCCCGGTAATCCGTATTTGGA (site TGCTTGACTTC)”: the “recombinant UMI read abundance (log10)” value worked out at 0.355.

Turning to “TGCTTGGCATGGACCGGTTTTCCCGGTAATCCGTATTTGAA (site TGCTTGGCTTT)”, the “recombinant UMI read abundance (log10)” value stood at 0.485.

On to “TGCTTGGCATGGACCGGTTTTCCCGGTAATCCGTATTTGGT (site TGCTAGGCTAC)”, for which the “recombinant UMI read abundance (log10)” value turned out to be 0.011.

Consider “TGCTTGGCATGGACCGGTTTTCCCGGTAATCCGTATTTGGT (site TGCTCGGCTAC)”, for which the “recombinant UMI read abundance (log10)” value came to 0.

For “TGCTTGGCATGGACCGGTTTTCCCGGTAATCCGTATTTGGT (site TGCTGGGCTAC)”, the “recombinant UMI read abundance (log10)” value stood at 0.155.

Regarding “TGCTTGGCATGGACCGGTTTTCCCGGTAATCCGTATTTGGT (site TGCTTGGCTAC)”, the “recombinant UMI read abundance (log10)” value came to 0.0115.

On to “TGGAAAACATGGACCGGTTTTCCCGGTAATCCGTATTTGCA (site AGGAAGACTTG)”, for which the “recombinant UMI read abundance (log10)” value was found to be 0.218.

Consider “TGGAAAACATGGACCGGTTTTCCCGGTAATCCGTATTTGCA (site TGGAAAACTTG)”, for which the “recombinant UMI read abundance (log10)” value is 2.24.

As to “TGGACAGCATGGACCGGTTTTCCCGGTAATCCGTATTTGCT (site TGGACAGCTAG)”, the “recombinant UMI read abundance (log10)” value was 2.26.

For the sequence “TGGACATCATGGACCGGTTTTCCCGGTAATCCGTATTTGCT (site AGGACATCTAG)”, the “recombinant UMI read abundance (log10)” value turned out to be 1.44.

As for “TGGACATCATGGACCGGTTTTCCCGGTAATCCGTATTTGCT (site CGGACATCTAG)”, the “recombinant UMI read abundance (log10)” value was 2.04.

With “TGGACATCATGGACCGGTTTTCCCGGTAATCCGTATTTGCT (site GGGACATCTAG)”, the “recombinant UMI read abundance (log10)” value turned out to be 0.348.

As for “TGGACATCATGGACCGGTTTTCCCGGTAATCCGTATTTGCT (site TGGACATCTAG)”, the “recombinant UMI read abundance (log10)” value was 1.69.

As to “TGGACCACATGGACCGGTTTTCCCGGTAATCCGTATTTGAT (site TGGACCACTAT)”, the “recombinant UMI read abundance (log10)” value came to 0.721.

“TGGAGCGCATGGACCGGTTTTCCCGGTAATCCGTATTTGGG (site TGGAGCGCTCC)”: the “recombinant UMI read abundance (log10)” value came to 0.0132.

As for “TGGAGTTCATGGACCGGTTTTCCCGGTAATCCGTATTTGTA (site TGGAGTTCTTA)”, the “recombinant UMI read abundance (log10)” value came to 1.31.

“TGGATTTCATGGACCGGTTTTCCCGGTAATCCGTATTTGCA (site TGGATTTCTTG)”: the “recombinant UMI read abundance (log10)” value came to 0.673.

As to “TGGCATCCATGGACCGGTTTTCCCGGTAATCCGTATTTGTT (site CGGAATCCTAA)”, the “recombinant UMI read abundance (log10)” value is 0.

Regarding “TGGCATCCATGGACCGGTTTTCCCGGTAATCCGTATTTGTT (site TGGCATCCTAA)”, the “recombinant UMI read abundance (log10)” value turned out to be 0.165.

In the case of “TGGCCACCATGGACCGGTTTTCCCGGTAATCCGTATTTGTT (site TGGCCACCTAA)”, the “recombinant UMI read abundance (log10)” value was 0.0258.

As for “TGGCCAGCATGGACCGGTTTTCCCGGTAATCCGTATTTGGC (site TGGCCAGCTGC)”, the “recombinant UMI read abundance (log10)” value was 0.

Turning to “TGGCCAGCATGGACCGGTTTTCCCGGTAATCCGTATTTGGC (site TGGCCCGCTGC)”, the “recombinant UMI read abundance (log10)” value is 0.

Regarding “TGGCCAGCATGGACCGGTTTTCCCGGTAATCCGTATTTGGC (site TGGCCGGCTGC)”, the “recombinant UMI read abundance (log10)” value amounted to 0.

“TGGCCAGCATGGACCGGTTTTCCCGGTAATCCGTATTTGGC (site TGGCCTGCTGC)”: the “recombinant UMI read abundance (log10)” value was 0.017.

Turning to “TGGCCGACATGGACCGGTTTTCCCGGTAATCCGTATTTGGC (site TGGCCGACTGC)”, the “recombinant UMI read abundance (log10)” value is 0.

As to “TGGCCGACATGGACCGGTTTTCCCGGTAATCCGTATTTGGC (site TGGCCGCCTGC)”, the “recombinant UMI read abundance (log10)” value came out at 0.

Regarding “TGGCCGACATGGACCGGTTTTCCCGGTAATCCGTATTTGGC (site TGGCCGGCTGC)”, the “recombinant UMI read abundance (log10)” value came to 0.00648.

As to “TGGCCGACATGGACCGGTTTTCCCGGTAATCCGTATTTGGC (site TGGCCGTCTGC)”, the “recombinant UMI read abundance (log10)” value stood at 0.

As for “TGGCCGGCATGGACCGGTTTTCCCGGTAATCCGTATTTGAC (site TGGCCGGCTGA)”, the “recombinant UMI read abundance (log10)” value worked out at 0.00628.

“TGGCCGGCATGGACCGGTTTTCCCGGTAATCCGTATTTGAC (site TGGCCGGCTGC)”: the “recombinant UMI read abundance (log10)” value is 0.

Take “TGGCCGGCATGGACCGGTTTTCCCGGTAATCCGTATTTGAC (site TGGCCGGCTGG)”: the “recombinant UMI read abundance (log10)” value was 0.

Turning to “TGGCCGGCATGGACCGGTTTTCCCGGTAATCCGTATTTGAC (site TGGCCGGCTGT)”, the “recombinant UMI read abundance (log10)” value was determined as 1.4.

With “TGGCCGGCATGGACCGGTTTTCCCGGTAATCCGTATTTGGT (site TGGCCGGCTAC)”, the “recombinant UMI read abundance (log10)” value amounted to 0.0121.

Consider “TGGCCGGCATGGACCGGTTTTCCCGGTAATCCGTATTTGGT (site TGGCCGGCTCC)”, for which the “recombinant UMI read abundance (log10)” value is 0.022.

As to “TGGCCGGCATGGACCGGTTTTCCCGGTAATCCGTATTTGGT (site TGGCCGGCTGC)”, the “recombinant UMI read abundance (log10)” value was found to be 0.

Regarding “TGGCCGGCATGGACCGGTTTTCCCGGTAATCCGTATTTGGT (site TGGCCGGCTTC)”, the “recombinant UMI read abundance (log10)” value is 0.0272.

For “TGGCTCACATGGACCGGTTTTCCCGGTAATCCGTATTTGTG (site TGGCTCACTCA)”, the “recombinant UMI read abundance (log10)” value was determined as 0.0236.

As for “TGGCTTCCATGGACCGGTTTTCCCGGTAATCCGTATTTGCT (site TGGCTTCCTAG)”, the “recombinant UMI read abundance (log10)” value turned out to be 0.

As for “TGGGAAACATGGACCGGTTTTCCCGGTAATCCGTATTTGGT (site TGGGAAACTAC)”, the “recombinant UMI read abundance (log10)” value is 1.29.

As for “TGGGCCACATGGACCGGTTTTCCCGGTAATCCGTATTTGCA (site TGGGCCACTTG)”, the “recombinant UMI read abundance (log10)” value was determined as 1.45.

Regarding “TGGGCGGCATGGACCGGTTTTCCCGGTAATCCGTATTTGGC (site TGGACGGCTGC)”, the “recombinant UMI read abundance (log10)” value turned out to be 1.49.

For the sequence “TGGGCGGCATGGACCGGTTTTCCCGGTAATCCGTATTTGGC (site TGGCCGGCTGC)”, the “recombinant UMI read abundance (log10)” value turned out to be 0.

In the case of “TGGGCGGCATGGACCGGTTTTCCCGGTAATCCGTATTTGGC (site TGGGCGGCTGC)”, the “recombinant UMI read abundance (log10)” value is 2.09.

In the case of “TGGGCGGCATGGACCGGTTTTCCCGGTAATCCGTATTTGGC (site TGGTCGGCTGC)”, the “recombinant UMI read abundance (log10)” value was determined as 0.

Regarding “TGGGCTACATGGACCGGTTTTCCCGGTAATCCGTATTTGCA (site TGGGCTACTTG)”, the “recombinant UMI read abundance (log10)” value worked out at 1.79.

Take “TGGGTAACATGGACCGGTTTTCCCGGTAATCCGTATTTGAC (site TGGGTAACTGT)”: the “recombinant UMI read abundance (log10)” value was 1.61.

Turning to “TGGGTAGCATGGACCGGTTTTCCCGGTAATCCGTATTTGGG (site TGGGTAGCTCC)”, the “recombinant UMI read abundance (log10)” value was 0.

With “TGGGTGACATGGACCGGTTTTCCCGGTAATCCGTATTTGAG (site TGGGTGACTCT)”, the “recombinant UMI read abundance (log10)” value turned out to be 0.83.

Take “TGGTAACCATGGACCGGTTTTCCCGGTAATCCGTATTTGTG (site TGGTAACCTCA)”: the “recombinant UMI read abundance (log10)” value came out at 0.0137.

Consider “TGGTCAACATGGACCGGTTTTCCCGGTAATCCGTATTTGCG (site TGGTCAACTCG)”, for which the “recombinant UMI read abundance (log10)” value worked out at 0.0115.

On to “TGGTCCTCATGGACCGGTTTTCCCGGTAATCCGTATTTGTC (site TGGTCCTCTGA)”, for which the “recombinant UMI read abundance (log10)” value stood at 1.33.

“TGGTCGGCATGGACCGGTTTTCCCGGTAATCCGTATTTGGC (site TGGACGGCTGC)”: the “recombinant UMI read abundance (log10)” value was 0.

In the case of “TGGTCGGCATGGACCGGTTTTCCCGGTAATCCGTATTTGGC (site TGGCCGGCTGC)”, the “recombinant UMI read abundance (log10)” value is 0.682.

As to “TGGTCGGCATGGACCGGTTTTCCCGGTAATCCGTATTTGGC (site TGGGCGGCTGC)”, the “recombinant UMI read abundance (log10)” value worked out at 0.00726.

As to “TGGTCGGCATGGACCGGTTTTCCCGGTAATCCGTATTTGGC (site TGGTCGGCTGC)”, the “recombinant UMI read abundance (log10)” value turned out to be 0.268.

In the case of “TGGTCTGCATGGACCGGTTTTCCCGGTAATCCGTATTTGCG (site ACCGTCTCTGA)”, the “recombinant UMI read abundance (log10)” value worked out at 0.

In the case of “TGGTGTACATGGACCGGTTTTCCCGGTAATCCGTATTTGAA (site TGGTGTACTTT)”, the “recombinant UMI read abundance (log10)” value amounted to 0.131.

Regarding “TGGTTTCCATGGACCGGTTTTCCCGGTAATCCGTATTTGCC (site TGGTTTCCTGG)”, the “recombinant UMI read abundance (log10)” value is 0.

Take “TGTAAAGCATGGACCGGTTTTCCCGGTAATCCGTATTTGAC (site TGTAAAGCTGT)”: the “recombinant UMI read abundance (log10)” value is 0.0139.

As to “TGTACAACATGGACCGGTTTTCCCGGTAATCCGTATTTGCT (site TGTACAACTAG)”, the “recombinant UMI read abundance (log10)” value was 0.836.

For “TGTACCCCATGGACCGGTTTTCCCGGTAATCCGTATTTGTA (site TGTACCCCTTA)”, the “recombinant UMI read abundance (log10)” value was found to be 0.292.

With “TGTACCCCATGGACCGGTTTTCCCGGTAATCCGTATTTGTA (site TGTCCCCCTTA)”, the “recombinant UMI read abundance (log10)” value was 0.253.

In the case of “TGTACCCCATGGACCGGTTTTCCCGGTAATCCGTATTTGTA (site TGTGCCCCTTA)”, the “recombinant UMI read abundance (log10)” value was found to be 0.
